From patent US4094966A, “Iodobenzene derivatives and X-ray contrast media containing the same” (priority 1974, dated 1978)

How the values were obtained:
femoral artery = experiment: Effect on the femoral rate of flow (peripheral vasodilatation); type: in vivo, mongrels
Protocol: This test was carried out in Nembutal-anesthetized male or female 7-12 mongrels.
Nembutal was used at a dosage of 30 mg/kg, with Vetranquil pre-medication, (overall intravenous injection of 2.5 mg), respiration was spontaneous.
Rate of flow variations were recorded at the level of the right or left fermoral artery, by means of a Statham electromagnetic sensor.
The injections were made in a collateral of the fermoral artery, downstream of the sensor, by means of a catheter mounted by the retrograde route, so as not to perturb the blood flow.
The injections were made under a constant volume of 1.5 ml administered within 3-5 seconds.
The same volume of an iostonic sodium chloride solution was also injected.

mice = experiment: Acute toxicity determination, intravenous toxicity in mice; type: in vivo, mice (Swiss origin, IOPS mice of OFI strain); details: 24 hours
Protocol: Intravenous toxicity determination was effected in Swiss origin, IOPS mice of OFI strain.
Each dosage level was injected to a lot of 10 mice comprising 5 male and 5 female mice.
Injections were made manually, in the caudal vein, at a rate of 2 ml/minute.
Death rate during the 24 hours after injection was recorded.

[1] = Osmolality determination (FISKE osmometer); type: physicochemical; details: solutions containing 28% iodine; methylglucamine salts; extrapolation from successive dilutions
Protocol: Osmolality is determined by extrapolation of the values obtained on successive dilutions of solutions containing 28% or 38% iodine.
Osmolality readings are made with a FISKE Model 230/D/330 D osmometer. This apparatus indicates this measurement as milliosmoles per kg of solution. Its operation is based on the principles of cryoscopy. The determinations were made with solutions containing 28% iodine.

[2] = Viscosity of 28% methylglucamine salt solutions at 37° C; type: physicochemical; details: 28% iodine methylglucamine salt solution
Protocol: Pharmaceutical grade injectable solutions are prepared in the form of the methylgucamine or sodium salt, containing 28, 38 or 48 g iodine per 100 ml (solutions said to contain 28%, 38% and 48% iodine).
It is apparent, from said results, that, contrary to expectations, the compounds of the formula (I) have relatively low solution viscosities.

[3] = Biliary clearance test in cats; type: in vivo; parameters: scale not given here
Protocol: This test was conducted in male or female adult cats weighing 3-4 kg.
The test material was injected intravenously, at a dosage of 0.10 g/kg iodine at the level of the internal saphenous vein. Clearance of the material was monitored by X-ray control.
X-ray pictures visualizing the gall bladder and the bladder were taken at the following times: 30 minutes, 1 hour, 2 hours, 3 hours, 4 hours, 5 hours, 6 hours.

rats = experiment: Toxicological investigation in rats on intracisternal injection (Melartin's method); type: in vivo
Excerpt: The results of a toxicological investigation effected in rats on intracisternal injection, according to E. Melartin's method (InvestigativeRadiology 1970 5, 1, 13-21) are also set forth below.

[4] = 1.5 ml into collateral of femoral artery, 28% I, Mgl salt
[5] = i.v., 0.10 g I/kg, 28% I, Mgl salt
[6] = 1.5 ml into collateral of femoral artery, 38% I, Na salt

SMILES	Osmolality [1] [mosm/kg]	Viscosity [2] [cps]	Peripheral vasodilatation, femoral rate of flow (femoral artery; [4])	Acute toxicity in mice, i.v. (mice; 28% I, Mgl salt)	Biliary clearance in cat, i.v. [3, 5]	further results
CNC(=O)c1c(I)c(C(=O)NCC(=O)Nc2c(I)c(C(=O)O)c(I)c(C(=O)NCCO)c2I)c(I)c(N(C)C(C)=O)c1I [Compound 1, 2,4,6-triiodo-3-N-hydroxyethylcarbamyl-5-(2,4,6-triiodo-3-N-methylcarbamyl-5-N-methyl-N-acetylaminobenzoyl)glycylamino-benzoic acid]	510	5.4	–	–	–	Peripheral vasodilatation, femoral rate of flow (femoral artery; in vivo): +; Acute toxicity in mice, i.v. (mice; 38% I, Mgl salt): 11.5 grams I/kg; Biliary clearance in cat, i.v. ([3]; in vivo, iv): ±
CNC(=O)c1c(I)c(NC(=O)CCCNC(=O)c2c(I)c(C(=O)NC)c(I)c(N(C)C(C)=O)c2I)c(I)c(C(=O)O)c1I [Compound 2, 2,4,6-triiodo-3-N-methylcarbamyl-5-(2,4,6-triiodo-3-N-methylcarbamyl-5-N-methylacetamido-benzoyl)-γ-aminobutyrylamino-benzoic acid]	475	6.56	+	9.5 grams I/kg	0	–
CNC(=O)c1c(I)c(NC(C)=O)c(I)c(C(=O)NCC(=O)Nc2c(I)c(C(=O)O)c(I)c(C(=O)NCCO)c2I)c1I [Compound 3, 2,4,6-triiodo-3-N-hydroxyethylcarbamyl-5-(2,4,6-triiodo-3-N-methylcarbamyl-5-acetamidio-benzoyl)-glycylaminobenzoic acid]	550	5.72	+	9-10 grams I/kg	–	–
CC(=O)Nc1c(I)c(C(=O)NCC(=O)Nc2c(I)c(C(=O)O)c(I)c(C(=O)NCCO)c2I)c(I)c(N(C)C(C)=O)c1I [Compound 6, 2,4,6-triiodo-3-N-hydroxyethylcarbamyl-5-(2,4,6-triiodo-3-acetamido-5-N-methylacetamido-benzoyl)-glycylamino-benzoic acid]	480	5.2	+	10 grams I/kg	0	–
CNC(=O)c1c(I)c(NC(=O)CNC(=O)c2c(I)c(C(=O)NCCO)c(I)c(N(C)C(C)=O)c2I)c(I)c(C(=O)O)c1I [Compound 8, 2,4,6-triiodo-3-N-methylcarbamyl-5-(2,4,6-triiodo-3-N-hydroxyethylcarbamyl-5-N-methylacetamido-benzoyl)glycyl amino-benzoic acid]	535	5.5	++	12 grams I/kg	±	–
CNC(=O)c1c(I)c(NC(=O)CNC(=O)c2c(I)c(C(=O)NC)c(I)c(N(C)C(C)=O)c2I)c(I)c(C(=O)O)c1I [Compound 9, 2,4,6-triiodo-3-N-methylcarbamyl-5-(2,4,6-triiodo-3-N-methylcarbamyl-5-N-methylacetamido-benzoyl)-glycylamino-benzoic acid]	440	5.8	–	–	–	Peripheral vasodilatation, femoral rate of flow (femoral artery; 1.5 ml into collateral of femoral artery, 38% I, Mgl salt): +; Acute toxicity in mice, i.v. (mice; 38% I, Mgl salt): 11.5 grams I/kg; Biliary clearance in cat, i.v. ([3]; i.v., 0.10 g I/kg, 38% I, Mgl salt): ++
CNC(=O)c1c(I)c(NC(C)=O)c(I)c(C(=O)NCC(=O)N(C)c2c(I)c(C(=O)O)c(I)c(C(=O)NC)c2I)c1I [Compound 14, 2,4,6-triiodo-3-N-methylcarbamyl-5-(2,4,6-triiodo-3-N-methylcarbamyl-5-acetamido-benzoyl)-glycyl-N-methylamino-benzoic acid]	600	5.2	+	12 grams I/kg	+	–
CNC(=O)c1c(I)c(C(=O)NCCCC(=O)Nc2c(I)c(C(=O)O)c(I)c(C(=O)NCCO)c2I)c(I)c(N(C)C(C)=O)c1I [Compound 24, 2,4,6-triiodo-3-N-hydroxyethylcarbamyl5-(2,4,6-triiodo-3-N-methylcarbamyl-5-N-methylacetamidobenzoyl)-ε-amino-butyrylamino-benzoic acid]	575	6	+	8.5 grams I/kg	0	–
CNC(=O)c1c(I)c(NC(C)=O)c(I)c(C(=O)NCC(=O)Nc2c(I)c(C(=O)O)c(I)c(N(C)C(C)=O)c2I)c1I [Compound 26, 12,4,6-triiodo-3-N-methylacetamido-5-(2,4,6-triiodo-3-N-methylcarbamyl-5-acetamido-benzoyl)-glycylamino-benzoic acid]	500	–	–	–	–	Peripheral vasodilatation, femoral rate of flow (femoral artery; [6]): ++; Acute toxicity in mice, i.v. (mice; 38% I, Na salt): 13 grams I/kg; Biliary clearance in cat, i.v. ([3]; i.v., 0.10 g I/kg, 38% I, Na salt): 0
CC(=O)N(C)c1c(I)c(NC(=O)CN(CC(=O)Nc2c(I)c(C(=O)NCCO)c(I)c(C(=O)NCCO)c2I)CC(=O)Nc2c(I)c(C(=O)NCCO)c(I)c(C(=O)NCCO)c2I)c(I)c(C(=O)O)c1I [Compound 32, 2,4,6-triiodo-3-N-methylacetamido-5-bis{[2,4,6-triiodo-3,5-bis(N-hydroxyethylcarbamyl)-phenyl]carbamylmethyl}aminoacetamido-benzoic acid]	270	–	+	15 grams I/kg	0	Death rate (rats; 50 mg I per rat): 0/10
CNC(=O)c1c(I)c(C(=O)O)c(I)c(N(C)C(=O)CN(CC(=O)Nc2c(I)c(C(=O)NCCO)c(I)c(C(=O)NCCO)c2I)CC(=O)Nc2c(I)c(C(=O)NCCO)c(I)c(C(=O)NCCO)c2I)c1I [Compound 33, 2,4,6-triiodo-3-N-methylcarbamyl-5-bis{[2,4,6-triiodo-3,5,-bis(N-hydroxyethylcarbamyl)-phenyl]carbamylmethyl}amino-N-methylacetamido-benzoic acid]	370	–	–	–	–	Peripheral vasodilatation, femoral rate of flow (femoral artery; [6]): ++; Death rate (rats; 56 mg I per rat): 0/10; Acute toxicity in mice, i.v. (mice; 38% I, Na salt): 17 grams I/kg
CNC(=O)c1c(I)c(C(=O)NCCCC(=O)N(C)c2c(I)c(C(=O)O)c(I)c(C(=O)NC)c2I)c(I)c(N(C)C(C)=O)c1I [Compound 37, 2,4,6-triiodo-3-N-methylcarbamyl-5-(2,4,6-triiodo-3-N-methylcarbamyl-5-N-methylacetamido-benzoyl)-γ-aminobutyryl-N-methylamino-benzoic acid]	730	–	++++	< 6 grams I/kg	++	–
CNC(=O)c1c(I)c(NC(C)=O)c(I)c(C(=O)O)c1I [a, 2,4,6-Triiodo-3-N-methylcarbamyl-5-acetamido-benzoic acid, reference compound]	1410	–	+++	5.4 grams I/kg	–	Biliary clearance in cat, i.v. ([3]; in vivo, iv): 0
CC(=O)Nc1c(I)c(C(=O)O)c(I)c(C(=O)NCCO)c1I [b, 2,4,6-Triiodo-3-N-hydroxyethylcarbamyl-5-acetamido-benzoic acid, reference compound]	1390	–	–	–	–	Peripheral vasodilatation, femoral rate of flow (femoral artery; 1.5 ml into collateral of femoral artery, 30% I, Mgl salt): +++; Acute toxicity in mice, i.v. (mice; 30% I, Mgl salt): 5.6 grams I/kg; Biliary clearance in cat, i.v. ([3]; i.v., 0.10 g I/kg, 30% I, Mgl salt): 0
